Data as given in the NIST ThermoML archive (doi:10.1021/je100100n).
± gives the expanded uncertainty stated by the source.

Legend:
[1] = 101.3 kPa, Liquid
[2] = xn = mol fraction of the nth substance listed; settings: 101 kPa, Liquid

CC(C)CO [2-methyl-1-propanol]
[1]
Settings	mass density [kg/m3]
288.15 K	805.6 ± 0.46
298.15 K	797.916 ± 0.47
313.15 K	786.069 ± 0.49
328.15 K	773.692 ± 0.51

CCCCO [butan-1-ol]
[1]
Settings	mass density [kg/m3]
288.15 K	813.77 ± 0.45
298.15 K	806.137 ± 0.46
313.15 K	794.488 ± 0.48
328.15 K	782.477 ± 0.49

CCOC(=O)CC(=O)OCC [diethyl 1,3-propanedioate]
[1]
Settings	mass density [kg/m3]
288.15 K	1060.33 ± 0.27
298.15 K	1049.6 ± 0.26
313.15 K	1033.5 ± 0.23
328.15 K	1017.34 ± 0.2

CCOC(=O)CC(=O)OCC [diethyl 1,3-propanedioate] + CCO
mass density [kg/m3], [2]
Settings	288.15 K	298.15 K	313.15 K	328.15 K
x1 = 0.05	826.264 ± 0.45	817.293 ± 0.46	803.619 ± 0.48	789.558 ± 0.5
x1 = 0.0999	853.923 ± 0.4	844.646 ± 0.41	830.505 ± 0.43	815.983 ± 0.46
x1 = 0.1001	854.013 ± 0.4	844.731 ± 0.41	830.589 ± 0.43	816.063 ± 0.46
x1 = 0.15	878.005 ± 0.36	868.468 ± 0.38	853.941 ± 0.4	839.005 ± 0.42
x1 = 0.2001	899.1 ± 0.33	889.366 ± 0.34	874.536 ± 0.36	859.351 ± 0.39
x1 = 0.3	934.365 ± 0.28	924.309 ± 0.29	909.007 ± 0.31	893.394 ± 0.34
x1 = 0.4	962.806 ± 0.23	952.511 ± 0.25	936.881 ± 0.27	920.983 ± 0.29
x1 = 0.4498	974.929 ± 0.22	964.533 ± 0.23	948.801 ± 0.25	932.802 ± 0.28
x1 = 0.4999	986.037 ± 0.2	975.577 ± 0.21	959.71 ± 0.24	943.637 ± 0.26
x1 = 0.5501	996.293 ± 0.18	985.767 ± 0.2	969.837 ± 0.22	953.695 ± 0.24
x1 = 0.6001	1005.6 ± 0.19	995.034 ± 0.18	979.034 ± 0.21	962.847 ± 0.23
x1 = 0.6453	1013.44 ± 0.2	1002.82 ± 0.18	986.788 ± 0.2	970.577 ± 0.22
x1 = 0.6997	1022.16 ± 0.21	1011.52 ± 0.2	995.442 ± 0.18	979.211 ± 0.21
x1 = 0.7497	1029.61 ± 0.23	1018.93 ± 0.21	1002.83 ± 0.18	986.588 ± 0.2
x1 = 0.8496	1043.02 ± 0.25	1032.31 ± 0.23	1016.2 ± 0.2	999.969 ± 0.18
x1 = 0.8995	1049.08 ± 0.26	1038.36 ± 0.24	1022.25 ± 0.21	1006.06 ± 0.19
x1 = 1	1060.33 ± 0.27	1049.6 ± 0.26	1033.5 ± 0.23	1017.34 ± 0.2

CCOC(=O)CC(=O)OCC [diethyl 1,3-propanedioate] + CO
mass density [kg/m3], [2]
Settings	288.15 K	298.15 K	313.15 K	328.15 K
x1 = 0.05	841.286 ± 0.44	831.536 ± 0.45	816.754 ± 0.47	801.691 ± 0.49
x1 = 0.1	876.23 ± 0.38	866.252 ± 0.39	851.13 ± 0.41	835.697 ± 0.43
x1 = 0.1501	904.185 ± 0.33	894.037 ± 0.34	878.631 ± 0.37	862.956 ± 0.39
x1 = 0.2001	926.962 ± 0.29	916.671 ± 0.31	901.091 ± 0.33	885.223 ± 0.35
x1 = 0.2501	945.901 ± 0.26	935.504 ± 0.28	919.763 ± 0.3	903.75 ± 0.32
x1 = 0.3001	961.96 ± 0.24	951.502 ± 0.25	935.636 ± 0.28	919.517 ± 0.3
x1 = 0.35	975.573 ± 0.22	965.04 ± 0.23	949.084 ± 0.25	932.879 ± 0.28
x1 = 0.4001	987.417 ± 0.2	976.822 ± 0.21	960.784 ± 0.24	944.523 ± 0.26
x1 = 0.4503	997.752 ± 0.18	987.12 ± 0.2	971.04 ± 0.22	954.725 ± 0.24
x1 = 0.5004	1006.9 ± 0.19	996.235 ± 0.18	980.1 ± 0.21	963.763 ± 0.23
x1 = 0.5497	1014.88 ± 0.2	1004.18 ± 0.18	988.016 ± 0.19	971.649 ± 0.22
x1 = 0.6	1022.04 ± 0.21	1011.32 ± 0.2	995.132 ± 0.18	978.761 ± 0.21
x1 = 0.6495	1028.48 ± 0.22	1017.74 ± 0.2	1001.52 ± 0.18	985.159 ± 0.2
x1 = 0.6997	1034.33 ± 0.23	1023.59 ± 0.21	1007.37 ± 0.19	991.006 ± 0.19
x1 = 0.7978	1044.36 ± 0.25	1033.61 ± 0.23	1017.38 ± 0.2	1001.07 ± 0.18
x1 = 0.9009	1053.15 ± 0.26	1042.39 ± 0.24	1026.22 ± 0.22	1009.98 ± 0.19
x1 = 1	1060.33 ± 0.27	1049.6 ± 0.26	1033.5 ± 0.23	1017.34 ± 0.2

CCO [ethanol]
[1]
Settings	mass density [kg/m3]
288.15 K	794.044 ± 0.48
298.15 K	785.489 ± 0.49
313.15 K	772.42 ± 0.51
328.15 K	758.958 ± 0.53

CCO [ethanol] + CCOC(=O)CC(=O)OCC
[2], x2 = 0
Settings	mass density [kg/m3]
288.15 K	794.044 ± 0.48
298.15 K	785.489 ± 0.49
313.15 K	772.42 ± 0.51
328.15 K	758.958 ± 0.53

CO [methanol]
[1]
Settings	mass density [kg/m3]
288.15 K	796.406 ± 0.47
298.15 K	786.987 ± 0.49
313.15 K	772.74 ± 0.51
328.15 K	758.201 ± 0.53

CO [methanol] + CCOC(=O)CC(=O)OCC
[2], x2 = 0
Settings	mass density [kg/m3]
288.15 K	796.406 ± 0.47
298.15 K	786.987 ± 0.49
313.15 K	772.74 ± 0.51
328.15 K	758.201 ± 0.53

CCCCCO [pentan-1-ol]
[1]
Settings	mass density [kg/m3]
288.15 K	818.801 ± 0.44
298.15 K	811.465 ± 0.45
313.15 K	800.264 ± 0.47
328.15 K	788.737 ± 0.48

CCCCCO [pentan-1-ol] + CCOC(=O)CC(=O)OCC
[2], x2 = 0
Settings	mass density [kg/m3]
288.15 K	818.801 ± 0.44
298.15 K	811.465 ± 0.45
313.15 K	800.264 ± 0.47
328.15 K	788.737 ± 0.48

CCCO [propan-1-ol]
[1]
Settings	mass density [kg/m3]
288.15 K	809.009 ± 0.46
298.15 K	800.973 ± 0.47
313.15 K	788.687 ± 0.48
328.15 K	775.974 ± 0.5

CCCO [propan-1-ol] + CCOC(=O)CC(=O)OCC
[2], x2 = 0
Settings	mass density [kg/m3]
288.15 K	809.009 ± 0.46
298.15 K	800.973 ± 0.47
313.15 K	788.687 ± 0.48
328.15 K	775.974 ± 0.5

CC(C)O [propan-2-ol]
[1]
Settings	mass density [kg/m3]
288.15 K	789.342 ± 0.48
298.15 K	780.99 ± 0.5
313.15 K	767.922 ± 0.52
328.15 K	754.001 ± 0.54

CC(C)O [propan-2-ol] + CCOC(=O)CC(=O)OCC
[2], x2 = 0
Settings	mass density [kg/m3]
288.15 K	789.342 ± 0.48
298.15 K	780.99 ± 0.5
313.15 K	767.922 ± 0.52
328.15 K	754.001 ± 0.54
